Experimental data taken from ChEMBL document CHEMBL1201862, “PubChem BioAssay data set” (2004).
Values belong to the molecule of their own block, whether it stands above or below them. Calls of active or inactive are those of the source.

Assays:
[1] = target: T1, High affinity choline transporter 1 (Homo sapiens, UniProt Q9GZV3); assay: human choline transporter blockers, potency – cell-based, 10-point CRC, membrane potential dye, dose response (AID 588401); assay type: functional;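 further: membrane potential dye fluorescence of choline-evoked depolarization via CHT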
T1 sequence (Q9GZV3 whole entry): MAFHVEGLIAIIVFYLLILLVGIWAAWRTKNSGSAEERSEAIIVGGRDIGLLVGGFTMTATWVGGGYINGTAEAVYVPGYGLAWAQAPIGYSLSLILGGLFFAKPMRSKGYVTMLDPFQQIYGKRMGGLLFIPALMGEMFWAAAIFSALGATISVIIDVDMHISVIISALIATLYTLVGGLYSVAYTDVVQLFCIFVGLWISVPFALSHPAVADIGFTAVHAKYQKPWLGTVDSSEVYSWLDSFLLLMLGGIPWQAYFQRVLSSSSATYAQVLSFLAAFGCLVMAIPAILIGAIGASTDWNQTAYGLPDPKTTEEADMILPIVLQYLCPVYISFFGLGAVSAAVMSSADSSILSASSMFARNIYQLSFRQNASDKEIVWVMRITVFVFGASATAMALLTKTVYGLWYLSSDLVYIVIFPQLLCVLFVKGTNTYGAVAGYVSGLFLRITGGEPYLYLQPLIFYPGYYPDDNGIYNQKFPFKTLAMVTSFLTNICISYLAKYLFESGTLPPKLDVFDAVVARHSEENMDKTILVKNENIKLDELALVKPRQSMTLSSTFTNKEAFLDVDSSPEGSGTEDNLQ

[2] = target: T1, High affinity choline transporter 1; assay: human choline transporter blockers, potency – cell-based, 5-point CRC, membrane potential dye, dose response (AID 504840); assay type: functional
[3] = cAMP pathway inhibition in counterscreen cell line – TR-FRET cAMP detection, counter-screen for MC4R biased antagonist project, dose response (AID 602305); assay type: functional, cell-based;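 further: U2OS cells stimulated with forskolin near its EC80 as the cAMP inducer; potency is for inhibition of forskolin-stimulated cAMP signaling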
Melanocortin receptor 4 = Melanocortin receptor 4 (Homo sapiens, UniProt P32245); assay: inhibitors of MC4R cAMP signaling – cell-based, TR-FRET, biased antagonists, dose response (AID 602298); assay type: functional;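 further: antagonist potency against agonist-stimulated cAMP production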
Beta Lactamase = Beta Lactamase (Pseudomonas aeruginosa, UniProt Q932Y6); assay: BLA reporter interference, concentration series – BLA reporter cells, FRET fluorescence, artefact control for TLR9-MyD88 binding inhibitor project, dose response (AID 588341); assay type: cell-based;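 further: cell based assay in CHO-K1 cells stably expressing beta-lactamase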
Fatty acid synthase [4] = target: T2, Fatty acid synthase (Homo sapiens, UniProt P49327); assay: inhibition of human FAS-TE enzyme activity – biochemical, endpoint fluorescence intensity, uHTS hits, dose response (AID 624327); assay type: functional;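 further: fluorescence from hydrolysis of an O-methyl fluorescein acyl ester substrate by the enzyme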
Fatty acid synthase [5] = target: T2, Fatty acid synthase; assay: inhibition of human FAS-TE enzyme activity – biochemical, kinetic fluorescence intensity, dose response (AID 624326); assay type: functional;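 further: rate of fluorescence rise from hydrolysis of a fluorogenic O-methyl fluorescein ester substrate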
HEK293 [6] = assay: inhibition of NOD1-driven NF-kB reporter – cell-based, luminescence, uHTS, primary screen (AID 1578); assay type: functional; details: Homo sapiens
CHO = CHO cell viability loss, potency – luminescence, cytotoxicity control for TLR9-MyD88 binding inhibitor project, dose response (AID 588339); assay type: functional, cell-based, hamster; details: Cricetulus griseus;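 further: CHO cells stably coexpressing TLR9 and MyD88 fusions from primary screen; compound exposure lasted 48 hours before viability readout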
[7] = non-specific 3'UTR reporter inhibition in Clone20-Shn3RL – cell-based, Renilla luciferase, cherry-picked, counter-screen for Shn3 inhibitor project, dose response (AID 624133); assay type: functional
HEK293 [8] = assay: cells; assay type: functional, cell-based; details: Homo sapiens
INS1 = assay: INS-1E survival protection against cytokine death – cell-based, luminescence, retest, dose response (AID 449756); assay type: functional; details: Rattus norvegicus;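 further: cell death triggered by IL-1 beta plus TNF-alpha plus IFN-gamma mixture; protective hits raise ATP signal compared with cytokine alone wells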
[9] = reduction of Shn3 3'UTR-driven luciferase in osteoblasts – cell-based, Clone20 osteoblasts, firefly luciferase, cherry-picked, dose response (AID 624132); assay type: functional;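 further: firefly luciferase luminescence from reporter carrying the Shn3 3'UTR in osteoblasts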
HEK293 [10] = assay: NOD2 signaling inhibitors in MDP-stimulated cells, cell-based, uHTS, luminescence (AID 2001); assay type: functional; details: Homo sapiens
[11] = loss of viability in HepG2 cells – cell-based, CellTiter-Glo, cherry-picked, cytotoxicity control for Shn3 inhibitor project, dose response (AID 624134); assay type: functional
HEK293 [12] = assay: cells; assay type: functional, cell-based; details: Homo sapiens; remark: listed apart in the source
[13] = target: Nucleotide-binding oligomerization domain-containing protein 2 (Homo sapiens, UniProt Q9HC29); assay: inhibition of NOD2-driven NF-kB reporter – cell-based, luminescence, uHTS, HEK293 (AID 1566); assay type: functional
[14] = target: T1, High affinity choline transporter 1; assay: human choline transporter radiolabel uptake blockers – cell-based, 3H-choline uptake, CHT LV-AA trafficking mutant, CRC, dose response (AID 602208); assay type: functional
[15] = inhibition of ARNT PAS-B/TACC3 complex formation – biochemical, AlphaScreen, cherry-picked samples, confirmation (AID 651703); assay type: functional, Homo sapiens;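 further: His-tagged ARNT PAS-B domain paired with GST-TACC3 E629A dimer coactivator fragment; potency of inhibitors that break up the complex and lower AlphaScreen signal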

Chain of Melanocortin receptor 4 (P32245 whole entry): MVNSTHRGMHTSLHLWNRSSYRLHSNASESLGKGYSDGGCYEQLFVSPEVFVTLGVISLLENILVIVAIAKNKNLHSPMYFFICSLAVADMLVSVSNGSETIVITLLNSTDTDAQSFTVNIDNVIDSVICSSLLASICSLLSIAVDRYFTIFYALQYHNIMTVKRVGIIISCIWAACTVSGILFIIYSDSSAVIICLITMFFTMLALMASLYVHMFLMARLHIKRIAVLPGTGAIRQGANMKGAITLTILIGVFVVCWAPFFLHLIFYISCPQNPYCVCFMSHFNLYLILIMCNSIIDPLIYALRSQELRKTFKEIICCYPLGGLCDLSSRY
T2 sequence (P49327 whole entry): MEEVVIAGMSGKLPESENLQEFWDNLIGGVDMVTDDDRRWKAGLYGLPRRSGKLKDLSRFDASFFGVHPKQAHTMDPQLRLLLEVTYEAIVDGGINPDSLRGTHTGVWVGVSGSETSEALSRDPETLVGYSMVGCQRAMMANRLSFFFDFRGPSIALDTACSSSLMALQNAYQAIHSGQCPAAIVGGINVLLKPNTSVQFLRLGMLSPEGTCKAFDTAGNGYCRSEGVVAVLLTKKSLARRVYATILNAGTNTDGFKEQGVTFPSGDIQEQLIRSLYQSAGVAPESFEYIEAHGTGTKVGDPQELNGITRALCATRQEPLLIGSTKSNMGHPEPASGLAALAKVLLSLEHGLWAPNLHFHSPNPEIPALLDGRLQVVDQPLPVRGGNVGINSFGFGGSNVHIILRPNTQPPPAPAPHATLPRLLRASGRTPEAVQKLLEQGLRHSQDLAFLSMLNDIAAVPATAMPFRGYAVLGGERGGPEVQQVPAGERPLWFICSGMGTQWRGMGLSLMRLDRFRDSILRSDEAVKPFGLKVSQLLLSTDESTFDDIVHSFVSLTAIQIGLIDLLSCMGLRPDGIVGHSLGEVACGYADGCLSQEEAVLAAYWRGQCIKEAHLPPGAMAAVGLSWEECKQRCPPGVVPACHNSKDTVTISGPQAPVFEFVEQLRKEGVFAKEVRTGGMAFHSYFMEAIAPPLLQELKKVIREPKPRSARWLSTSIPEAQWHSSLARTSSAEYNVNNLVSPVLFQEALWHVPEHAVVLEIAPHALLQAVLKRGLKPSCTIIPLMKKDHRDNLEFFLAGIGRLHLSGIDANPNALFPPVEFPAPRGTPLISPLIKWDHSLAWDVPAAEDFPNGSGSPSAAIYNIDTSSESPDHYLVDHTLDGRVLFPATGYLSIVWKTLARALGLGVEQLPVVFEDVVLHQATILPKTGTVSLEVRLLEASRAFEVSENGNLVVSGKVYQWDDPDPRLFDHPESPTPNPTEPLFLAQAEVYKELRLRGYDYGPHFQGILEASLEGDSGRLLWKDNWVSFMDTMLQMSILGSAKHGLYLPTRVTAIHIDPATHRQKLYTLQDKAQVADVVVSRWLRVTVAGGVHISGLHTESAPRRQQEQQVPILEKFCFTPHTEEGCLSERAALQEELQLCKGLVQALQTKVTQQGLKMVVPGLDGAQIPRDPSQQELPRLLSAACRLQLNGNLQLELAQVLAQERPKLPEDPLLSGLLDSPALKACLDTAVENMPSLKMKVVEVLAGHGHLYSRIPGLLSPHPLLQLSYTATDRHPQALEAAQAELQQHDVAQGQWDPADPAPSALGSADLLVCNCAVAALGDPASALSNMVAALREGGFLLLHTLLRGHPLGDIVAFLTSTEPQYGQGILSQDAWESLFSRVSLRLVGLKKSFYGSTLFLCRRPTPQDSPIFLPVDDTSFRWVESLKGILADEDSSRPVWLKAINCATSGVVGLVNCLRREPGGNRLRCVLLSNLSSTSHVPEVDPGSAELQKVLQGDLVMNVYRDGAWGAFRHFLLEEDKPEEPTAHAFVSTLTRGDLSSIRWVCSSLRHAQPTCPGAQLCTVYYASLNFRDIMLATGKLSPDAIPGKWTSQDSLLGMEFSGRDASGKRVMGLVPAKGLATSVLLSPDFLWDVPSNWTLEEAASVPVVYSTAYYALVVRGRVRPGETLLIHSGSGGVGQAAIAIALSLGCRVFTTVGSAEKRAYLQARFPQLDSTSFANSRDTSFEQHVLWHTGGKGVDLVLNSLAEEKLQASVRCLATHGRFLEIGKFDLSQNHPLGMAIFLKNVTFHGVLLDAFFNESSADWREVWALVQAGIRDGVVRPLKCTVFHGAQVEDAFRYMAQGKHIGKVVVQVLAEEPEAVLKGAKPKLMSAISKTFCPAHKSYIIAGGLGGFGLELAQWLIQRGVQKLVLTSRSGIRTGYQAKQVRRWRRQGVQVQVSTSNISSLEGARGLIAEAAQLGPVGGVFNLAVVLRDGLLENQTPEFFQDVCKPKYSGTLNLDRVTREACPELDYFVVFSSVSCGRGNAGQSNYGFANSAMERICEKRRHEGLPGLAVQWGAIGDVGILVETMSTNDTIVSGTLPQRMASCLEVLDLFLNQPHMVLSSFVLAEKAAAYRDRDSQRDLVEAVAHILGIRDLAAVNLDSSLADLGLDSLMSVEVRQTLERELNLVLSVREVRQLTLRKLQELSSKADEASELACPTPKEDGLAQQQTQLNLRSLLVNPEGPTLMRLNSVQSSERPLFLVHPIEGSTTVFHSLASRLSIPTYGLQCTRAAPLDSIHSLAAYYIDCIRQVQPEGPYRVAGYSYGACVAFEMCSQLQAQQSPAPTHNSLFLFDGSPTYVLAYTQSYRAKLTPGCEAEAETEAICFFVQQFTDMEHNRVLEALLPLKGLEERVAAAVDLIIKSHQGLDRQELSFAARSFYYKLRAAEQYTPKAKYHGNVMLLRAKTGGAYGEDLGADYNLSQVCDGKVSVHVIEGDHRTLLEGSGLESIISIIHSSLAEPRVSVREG
Chain of Nucleotide-binding oligomerization domain-containing protein 2 (Q9HC29 whole entry, the tested form may be a part): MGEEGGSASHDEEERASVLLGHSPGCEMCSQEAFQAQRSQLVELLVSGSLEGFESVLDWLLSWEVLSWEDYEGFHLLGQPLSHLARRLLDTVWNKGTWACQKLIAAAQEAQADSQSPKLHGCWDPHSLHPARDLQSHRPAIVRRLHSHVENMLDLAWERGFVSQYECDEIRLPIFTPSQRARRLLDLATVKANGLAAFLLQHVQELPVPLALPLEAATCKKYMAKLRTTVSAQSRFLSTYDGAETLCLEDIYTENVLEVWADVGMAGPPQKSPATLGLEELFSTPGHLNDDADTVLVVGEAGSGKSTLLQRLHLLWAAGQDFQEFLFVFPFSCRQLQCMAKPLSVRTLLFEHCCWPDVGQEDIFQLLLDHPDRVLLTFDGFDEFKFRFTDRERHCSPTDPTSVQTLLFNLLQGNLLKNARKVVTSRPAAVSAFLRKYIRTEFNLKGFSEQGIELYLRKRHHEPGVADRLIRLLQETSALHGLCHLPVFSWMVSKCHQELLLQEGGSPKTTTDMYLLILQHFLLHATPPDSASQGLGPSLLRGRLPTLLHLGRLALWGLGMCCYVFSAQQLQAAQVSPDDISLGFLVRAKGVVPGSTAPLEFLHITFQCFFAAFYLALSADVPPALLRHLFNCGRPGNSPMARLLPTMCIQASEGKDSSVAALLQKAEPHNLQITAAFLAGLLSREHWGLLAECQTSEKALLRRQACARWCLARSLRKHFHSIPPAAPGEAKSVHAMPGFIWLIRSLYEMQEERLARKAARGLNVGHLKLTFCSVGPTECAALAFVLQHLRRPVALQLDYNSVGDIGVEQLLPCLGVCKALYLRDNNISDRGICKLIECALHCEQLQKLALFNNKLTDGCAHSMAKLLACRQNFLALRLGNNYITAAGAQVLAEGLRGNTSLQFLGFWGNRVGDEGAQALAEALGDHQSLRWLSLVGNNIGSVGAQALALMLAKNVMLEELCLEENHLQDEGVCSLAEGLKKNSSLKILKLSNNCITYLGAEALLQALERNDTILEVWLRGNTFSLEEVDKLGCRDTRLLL
Chain of Beta Lactamase (Q932Y6 whole entry): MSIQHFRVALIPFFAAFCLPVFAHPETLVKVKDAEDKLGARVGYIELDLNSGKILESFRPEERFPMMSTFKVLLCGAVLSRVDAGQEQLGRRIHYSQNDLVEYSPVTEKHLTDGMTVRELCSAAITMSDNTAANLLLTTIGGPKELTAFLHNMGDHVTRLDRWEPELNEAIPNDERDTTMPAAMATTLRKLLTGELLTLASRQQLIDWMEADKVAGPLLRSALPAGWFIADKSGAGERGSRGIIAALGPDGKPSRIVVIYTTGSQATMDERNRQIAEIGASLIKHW

- IC50 [1]: 4.01 µM (active)
- IC50 [2]: 10.2 µM (active)
SMILES: O=[N+]([O-])c1cc(C(F)(F)F)cc([N+](=O)[O-])c1N1CCCNCC1

SMILES: CC(C)(C)OC(=O)NCc1ccc(NC(=O)c2[nH]cnc2C(=O)N[C@@H](Cc2ccccc2)C(=O)OCc2ccccc2)cc1
- IC50 [3]: > 64.6 µM (inactive)

- IC50 (Melanocortin receptor 4): > 64.6 µM (inactive)
SMILES: CC(C)(C)OC(=O)NCc1ccc(NC(=O)c2nc[nH]c2C(=O)N[C@@H](Cc2ccccc2)C(=O)OCc2ccccc2)cc1

SMILES: CCN(c1ccccc1)S(=O)(=O)c1ccc(NC(=O)c2nc(S(C)(=O)=O)ncc2Cl)cc1
- IC50 (Beta Lactamase): 7.96 µM (active)
- IC50 (Fatty acid synthase [4]): 6.22 µM (active)
- IC50 (Fatty acid synthase [5]): 3.48 µM (active)
- EC50 (HEK293 [6]): > 20 µM (inactive)
- IC50 (CHO): 2.53 µM (active)
- AC50 [7]: 4.56 µM (active)
- IC50 (HEK293 [8]): > 20 µM (inactive)
- AC50 (INS1): 5.28 µM (active)
- AC50 [9]: 0.562 µM (active)
- IC50 (HEK293 [10]): 8.24 µM (inactive)
- AC50 [11]: 15.2 µM (active)
- IC50 (HEK293 [12]): > 20 µM (inactive)
- EC50 [13]: > 20 µM (inactive)

SMILES: O=C1OCCC1Sc1nc2ccccc2n1Cc1ccccc1 (stereo not drawn)
- IC50 [3]: > 64.6 µM (inactive)
- IC50 (Melanocortin receptor 4): 10.9 µM (inactive)

SMILES: COc1ccc(C(=O)NCCC2=CCCCC2)cc1OC1CCN(C(C)C)CC1
- IC50 [14]: 16 µM (active)
- IC50 [1]: 3.16 µM (active)
- IC50 [2]: 2.63 µM (active)

SMILES: C#CCOCCOCCOCCNc1nc(N2CCN(C(=O)[C@H](CCCCN)n3cc([C@@H](N)CO)nn3)CC2)nc(N2CCN(C(=O)[C@H](Cc3ccc(O)cc3)n3cc([C@@H](N)CC(C)C)nn3)CC2)n1
- AC50 [15]: 121 µM (active)
